# Earlier results, collected in patent EP3735959A1, “COMPOSITIONS TO REDUCE HYPERPIGMENTATION” (InnovativeHealth Group SL, priority 2019, dated 2020).
# Tested on: human epidermal melanocytes
smiles,measurement,setting,value
"C=C(C)[C@@H]1CCC(C)=C[C@H]1c1c(O)cc(CCCCC)cc1O [CBD, Cannabidiol]",melanogenesis,"6 µM, by increasing the expression of MITF (reference 6)",induced melanogenesis
same,cellular tyrosinase activity,"human epidermal melanocytes, concentration dependent (reference 6)",significantly increased
